From US9278091B2, “Compounds for the treatment of Clostridium difficile associated disease” (Summit Therapeutics PLC, priority 2010, dated 2016) come the findings set out here.

Format in all cases: cell-based
The test system of assay [1] is Bifidobacterium dentium NCTC 11816. Description: MIC by broth microdilution (CLSI) against B. dentium. The following applies: NCTC11816, read-out: minimum inhibitory concentration (MIC) B. dentium. As to the method:
(§1) The term “minimum inhibitory concentration” or “MIC” defines the lowest concentration of a test compound that is needed to inhibit growth of a bacterial isolate in vitro. A common method for determining the MIC of an antibiotic is to prepare several tubes containing serial dilutions of the test compound that are then inoculated with the bacterial isolate of interest.
(§2) MIC data were determined by broth microdilution according to CLSI protocols described in Methods for Antimicrobial Susceptibility Testing of Anaerobic Bacteria; Approved Standard-Seventh Edition [M11-A7, Vol. 27, No 2, January 2007] and Methods for Dilution Antimicrobial Susceptibility Tests for Bacteria That Grow Aerobically; Approved Standard—Seventh Edition [M7-A7, Vol. 26, No 2, January 2006].
(§3) The bacterial strains used were: • Bacteroides fragilis ATCC 25285 • Escherichia coli ATCC25922 • Lactobacillus paracasei Z1 83 • Bifidobacterium dentium NCTC 11816 • B. adolescentis MWR144 • Staphylococcus aureus ATCC29213 • Enterococcus faecalis ATCC29212

For assay [2], the system named is Staphylococcus aureus ATCC29213. Description: MIC by broth microdilution (CLSI) against S. aureus. The settings on record: read-out: minimum inhibitory concentration (MIC) S. aureus. As to the method:
as §1, §2, §3

Assay [3] concerns Lactobacillus paracasei Z1 83. Description: MIC by broth microdilution (CLSI) against L. paracasei. The following applies: Lacticaseibacillus paracasei, Z183, read-out: minimum inhibitory concentration (MIC) L. paracasei. The method, then:
as §1, §2, §3

Assay [4] has as its system Clostridium difficile ATCC700057. Description: MIC by broth microdilution (CLSI) against Clostridium difficile. The settings on record: Clostridioides difficile, read-out: minimum inhibitory concentration (MIC) C. difficile. The method, then: as §1, §2
In the next assay the test system is B. adolescentis MWR144. Description: MIC by broth microdilution (CLSI) against B. adolescentis. The settings on record: Bifidobacterium adolescentis, read-out: minimum inhibitory concentration (MIC) B. adolescentis. As to the method: as §1, §2, §3
In assay [5] the test system is Bacteroides fragilis ATCC 25285. Description: MIC by broth microdilution (CLSI) against B. fragilis. The settings on record: ATCC25285, read-out: minimum inhibitory concentration (MIC) B. fragilis. The method, then:
as §1, §2, §3

Assay [6] deals with Enterococcus faecalis ATCC29212. Description: MIC by broth microdilution (CLSI) against E. faecalis. The following applies: read-out: minimum inhibitory concentration (MIC) E. faecalis. The method, then: as §1, §2, §3
Assay [7] has as its system Escherichia coli ATCC25922. Description: MIC by broth microdilution (CLSI) against E. coli. The settings on record: read-out: minimum inhibitory concentration (MIC) E. coli. The method, then:
as §1, §2, §3

Turning to `c1cnc2sc(-c3nc4cc(-c5ccc6[nH]c(-c7ccncc7)nc6c5)ccc4[nH]3)cc2c1` [Example 1, 2-(2′-(pyridin-4-yl)-1H,1′H-5,5′-bibenzo[d]imidazol-2-yl)thieno[2,3-b]pyridine], the MIC in assay [1] is at least 64 µg/mL; in assay [2], at least 64 µg/mL; in assay [3], at least 64 µg/mL; in assay [4], at most 1 µg/mL; in the assay with B. adolescentis MWR144, at most 32 µg/mL; in assay [5] it was at least 64 µg/mL. Moreover, the MIC in assay [6] and in assay [7] was at least 64 µg/mL in each case.
Consider `c1ccc2sc(-c3nc4cc(-c5ccc6[nH]c(-c7ccncc7)nc6c5)ccc4[nH]3)cc2c1` [Example 2, 2-(benzo[b]thiophen-2-yl)-2′-(pyridin-4-yl)-1H,1′H-5,5′-bibenzo[d]imidazole], for which the MIC was at least 64 µg/mL in assay [1]; at least 64 µg/mL in assay [2]; at least 64 µg/mL in assay [3]; at most 4 µg/mL in assay [4]; at least 64 µg/mL with B. adolescentis MWR144; at least 64 µg/mL in assay [5]. The MIC in assay [6] and in assay [7] was at least 64 µg/mL in each case.
`c1cc(-c2nc3cc(-c4ccc5[nH]c(-c6ccc7occc7c6)nc5c4)ccc3[nH]2)ccn1` [Example 3, 2-(benzofuran-5-yl)-2′-(pyridin-4-yl)-1H,1′H-5,5′-bibenzo[d]imidazole]: the MIC in assay [1] is at most 32 µg/mL; in assay [2] it was at most 1 µg/mL; in assay [3], at most 32 µg/mL; in assay [4] it was at most 1 µg/mL; in the assay on B. adolescentis MWR144, at most 4 µg/mL; in assay [5], at least 64 µg/mL. Besides, the MIC in assay [6] was at most 1 µg/mL; in assay [7], at least 64 µg/mL.
In the case of `c1cc(-c2nc3ccc(-c4ccc5[nH]c(-c6ccc7[nH]cnc7c6)nc5c4)cc3[nH]2)ccn1` [Example 4, 6-(2′-(pyridin-4-yl)-1H,3′H-5,5′-bibenzo[d]imidazol-2-yl)benzo[d]imidazole], the MIC in assay [1] was at least 64 µg/mL; in assay [2], at least 64 µg/mL; in assay [3] it was at least 64 µg/mL; in assay [4], at most 1 µg/mL; in the assay with B. adolescentis MWR144 it was at least 64 µg/mL; in assay [5] it was at least 64 µg/mL. In addition, the MIC in assay [6] and in assay [7] was at least 64 µg/mL in each case.
In the case of `c1cc(-c2nc3ccc(-c4ccc5[nH]c(-c6ccc7sccc7c6)nc5c4)cc3[nH]2)ccn1` [Example 5, 2-(benzo[b]thiophen-5-yl)-2′-(pyridin-4-yl)-1H,3′H-5,5′-bibenzo[d]imidazole], the MIC in assay [1] is at least 64 µg/mL; in assay [2], at least 64 µg/mL; in assay [3], at least 64 µg/mL; in assay [4] it was at most 1 µg/mL; in the assay on B. adolescentis MWR144, at most 32 µg/mL; in assay [5], at least 64 µg/mL. The MIC in assay [6] was at most 32 µg/mL; in assay [7] it was at least 64 µg/mL.
Take `c1cc(-c2nc3ccc(-c4ccc5[nH]c(-c6ccc7[nH]ccc7c6)nc5c4)cc3[nH]2)ccn1` [Example 6, 2-(1H-indol-5-yl)-2′-(pyridin-4-yl)-1H,3′H-5,5′-bibenzo[d]imidazole]: the MIC in assay [1] is at least 64 µg/mL; in assay [2] it was at most 32 µg/mL; in assay [3], at least 64 µg/mL; in assay [4] it was at most 1 µg/mL; in the assay with B. adolescentis MWR144, at most 32 µg/mL; in assay [5], at least 64 µg/mL. In addition, the MIC in assay [6] and in assay [7] was at least 64 µg/mL throughout.
On to `c1cc(-c2nc3ccc(-c4ccc5[nH]c(-c6ccc7c(c6)CCO7)nc5c4)cc3[nH]2)ccn1` [Example 7, 2-(2,3-dihydrobenzofuran-5-yl)-2′-(pyridin-4-yl)-1H,3′H-5,5′-bibenzo[d]imidazole], for which the MIC in assay [1] is at least 64 µg/mL; in assay [2], at least 64 µg/mL; in assay [3], at least 64 µg/mL; in assay [4] it was at most 1 µg/mL; in the assay with B. adolescentis MWR144 it was at most 4 µg/mL; in assay [5], at least 64 µg/mL. Also, the MIC in assay [6] is at most 4 µg/mL; in assay [7], at least 64 µg/mL.
Take `c1cc(-c2nc3cc(-c4ccc5[nH]c(-c6ccc7nccn7c6)nc5c4)ccc3[nH]2)ccn1` [Example 8, 2-(imidazo[1,2-a]pyridin-6-yl)-2′-(pyridin-4-yl)-1H,1′H-5,5′-bibenzo[d]imidazole]: the MIC in assay [1] was at least 64 µg/mL; in assay [2], at least 64 µg/mL; in assay [3], at least 64 µg/mL; in assay [4], at most 1 µg/mL; in the assay with B. adolescentis MWR144, at least 64 µg/mL; in assay [5] it was at least 64 µg/mL. The MIC in assay [6] and in assay [7] was at least 64 µg/mL throughout.
As to `c1cc(-c2nc3cc(-c4ccc5[nH]c(-c6ccc7c(c6)OCO7)nc5c4)ccc3[nH]2)ccn1` [Example 9, 2-(benzo[d][1,3]dioxol-5-yl)-2′-(pyridin-4-yl)-1H,1′H-5,5′-bibenzo[d]imidazole], the MIC was at least 64 µg/mL in assay [1]; at least 64 µg/mL in assay [2]; at least 64 µg/mL in assay [3]; at most 1 µg/mL in assay [4]; at least 64 µg/mL with B. adolescentis MWR144; at least 64 µg/mL in assay [5]. The MIC in assay [6] and in assay [7] was at least 64 µg/mL throughout.
Take `c1ccc2oc(-c3nc4cc(-c5ccc6[nH]c(-c7ccncc7)nc6c5)ccc4[nH]3)cc2c1` [Example 10, 2-(benzofuran-2-yl)-2′-(pyridin-4-yl)-1H,1′H-5,5′-bibenzo[d]imidazole]: the MIC in assay [1] was at least 64 µg/mL; in assay [2], at most 32 µg/mL; in assay [3] it was at least 64 µg/mL; in assay [4], at most 1 µg/mL; in the assay with B. adolescentis MWR144 it was at most 32 µg/mL; in assay [5], at least 64 µg/mL. Moreover, the MIC in assay [6] and in assay [7] was at least 64 µg/mL throughout.
As for `c1cc(-c2nc3cc(-c4ccc5[nH]c(-c6cc7ccncc7s6)nc5c4)ccc3[nH]2)ccn1` [Example 11, 2-(2′-(pyridin-4-yl)-1H,1′H-[5,5′-bibenzo[d]imidazol]-2-yl)thieno[2,3-c]pyridine], the MIC is at least 64 µg/mL in assay [1]; at least 64 µg/mL in assay [2]; at least 64 µg/mL in assay [3]; at most 1 µg/mL in assay [4]; at least 64 µg/mL with B. adolescentis MWR144; at least 64 µg/mL in assay [5]. Also, the MIC in assay [6] and in assay [7] was at least 64 µg/mL throughout.
As to `c1cncc(-c2nc3cc(-c4ccc5[nH]c(-c6ccc7nccn7c6)nc5c4)ccc3[nH]2)c1` [Example 12, 2-(imidazo[1,2-a]pyridin-6-yl)-2′-(pyridin-3-yl)-1H,1′H-5,5′-bibenzo[d]imidazole], the MIC in assay [1] is at least 64 µg/mL; in assay [2], at least 64 µg/mL; in assay [3], at least 64 µg/mL; in assay [4] it was at most 1 µg/mL; in the assay with B. adolescentis MWR144 it was at least 64 µg/mL; in assay [5], at least 64 µg/mL. Besides, the MIC in assay [6] and in assay [7] was at least 64 µg/mL in each case.
In the case of `c1cncc(-c2nc3cc(-c4ccc5[nH]c(-c6cc7cccnc7s6)nc5c4)ccc3[nH]2)c1` [Example 13, 2-(2′-(pyridin-3-yl)-1H,1′H-[5,5′-bibenzo[d]imidazol]-2-yl)thieno[2,3-b]pyridine], the MIC in assay [1] is at least 64 µg/mL; in assay [2], at least 64 µg/mL; in assay [3], at least 64 µg/mL; in assay [4] it was at most 1 µg/mL; with B. adolescentis MWR144, at least 64 µg/mL; in assay [5] it was at least 64 µg/mL. Besides, the MIC in assay [6] and in assay [7] was at least 64 µg/mL in each case.
